This data set in a line: Solid form stability (conversion on heating or storage, by 1H solution NMR and XRPD). The class given is physicochemical. How it is done:
Form C was obtained by slow evaporation from an IPA solution at RT. […] (onset temperatures) and 93.3° C. (peak temperature) (FIG. 5).
Form D was obtained via slow evaporation from EtOH solution at RT. […] (onset temperatures) and an exotherm at 88.5° C. (peak temperature) (FIG. 8).
(onset temperatures) (FIG. 9).
Form F was obtained by evaporation of DCM solution (100 mg scale) at RT for 1 day. […] (onset temperatures) and an exotherm at 86.9° C. (peak temperature) (FIG. 11).

This is an account of results in US11993586B2, “Crystalline forms of potassium channel modulators” (Novartis AG, priority 2018, dated 2024).

With `Cc1ccn(-c2nc(NC3CCC(F)(F)CC3)cc(N3CCOCC3)n2)n1` [Form C], the Solid form conversion entry (heated to 110° C.) is given as “converted to anhydrate Form B” and the Solid form conversion result (stored at RT for 8 days) was “converted to anhydrate Form B”.

As for `Cc1ccn(-c2nc(NC3CCC(F)(F)CC3)cc(N3CCOCC3)n2)n1` [Form E], the Solid form conversion entry (heated to 130° C.) is on record as “converted to anhydrate Form B”. With `Cc1ccn(-c2nc(NC3CCC(F)(F)CC3)cc(N3CCOCC3)n2)n1` [Form F], the Solid form conversion entry (heated to 120° C.) is “converted to anhydrate Form B”. Consider `Cc1ccn(-c2nc(NC3CCC(F)(F)CC3)cc(N3CCOCC3)n2)n1` [Form D], for which, where the note is “stored at RT for a month”, the Solid form conversion result was “converted to anhydrate Form B”.
